Like-named read-outs stand apart in the source and are kept apart here.
Tests used:
cells = assay: Cellular activities in microculture tetrazolium (MTT) tests; format: cell-based
Experimental: The cellular activities were tested according to method as described in Alley M.C. et al, Cancer Res. 1988; 48(3):589-601. The principle of the method resides in that live cells can reduce MTT., i.e., 3-[4,5-dimethylthiazol-2-yl]-2,5-diphenyltetrazolium bromide)(tetrazolium salt) to formazan crystal through the dehydrogenase metabolism in Mitochondria. The crystal was dissolved in propanol and OD values were determined at 570 nm. The OD values can indicate the numbers of the live cells. The growth conditions of the cells were observed firstly. The cells were diluted to 2x10^4 cells/ml. 100µl sample taken by micropipet was placed in a 96-well plate. The plate was cultured for 24 hours as 37°C and 100µl of the compounds to be tested, which were prepared in medium, were added in each well. […] After culture for 4 hours, supernatant liquid was absorbed and 100 µl DMSO and 10µl /well was added. Each well was homogeneously mixed. The absorbance was determined at 570 nm.

[1] = test system: macrophage-tropic (NL-43); assay: P24 quantification (P24 EIA) in infected PBMCs, NL-43; format: cell-based, HIV-1; conditions: PBMC; for concentrations of the viral P24 antigen, NL43(+): (+) original concentration of compound maintained after washing; for concentrations of the viral P24 antigen, NL43(-): (-) compound removed after washing
Experimental: (§1) PBMCs were treated with various concentrations of CAPE, MC and PEDMC provided in Example 2 and simultaneously infected with […] and macrophage and T cells dual tropic (89.6) HIV-1 isolates. The next day, the added compounds were removed by washing methods or maintained at the same concentration. Samples were divided into two groups and the upernatants of the culture medium were collected at the 3 and 7 days after infection, respectively. The use of P24 EIA Reagent Kit of Abbott Laboratory compares the concentrations of viral P24 antigen with or without the compounds tested.

T cells-tropic (JRCSF) = assay: P24 quantification (P24 EIA) in infected PBMCs, JRCSF; format: cell-based, HIV-1; conditions: PBMC; for concentrations of the viral P24 antigen, JRCSF(+): (+) original concentration of compound maintained after washing; for concentrations of the viral P24 antigen, JRCSF(-): (-) compound removed after washing
Experimental: as §1

[2] = test system: macrophage and T cells dual tropic (89.6); assay: P24 quantification (P24 EIA) in infected PBMCs, 89.6; format: cell-based, HIV-1; conditions: PBMC; for concentrations of the viral P24 antigen, 89.6(+): (+) original concentration of compound maintained after washing; for concentrations of the viral P24 antigen, 89.6(-): (-) compound removed after washing
Experimental: as §1

[3] = test system: various HIV isolates (NL-43, JRCSF or 89.6); assay: P24 quantification, summary statements over all isolates; format: cell-based, HIV-1
Experimental: as §1

[4] = test system: Peripheral Blood Mononuclear Cells (PBMC); conditions: for The numbers of dead cells in 400 cells' count / % viability: 48 hours; for The numbers of dead cells in 400 cells' count: control 9 dead cells; for % viability: viable cells versus control (391);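 on all read-outs here: trypan blue dye exclusion, cells stained and counted from quadruplicate dishes, DMSO vehicle kept under 0.5%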
Experimental: Viability of the cells was assayed by the trypan blue dye exclusion method. […] The concentration of DMSO was adjusted to be less than 0.5%. Cells from quadruplicated dishes were washed once with Hank's Balanced Salt Solution (HBSS). According to the process, the floating dead cells will be separated from the live monolayer cells. Then the cells were stained with trypan blue and counted. The total number of viable cells in the control group was considered as 100% viability and the agent-treated cells were compared with the control group for the determination of % viability. The % viability of agent-treated cells was calculated from the total number of viable cells in the control group and in the agent-treated group.

SMILES: O=C(/C=C/c1ccc(O)c(O)c1)OCCc1ccccc1 [CAPE, caffeic acid phenethyl ester]
- MTT 24h, cellular activities (cells; 0.1 µM): 97.49 relative percentage
- MTT 48h, cellular activities (cells; 0.1 µM): 87.49 relative percentage
- MTT 24h, cellular activities (cells; 0.5 µM): 104.67 relative percentage
- MTT 48h, cellular activities (cells; 0.5 µM): 97.54 relative percentage
- MTT 24h, cellular activities (cells; 1 µM): 109.25 relative percentage
- MTT 48h, cellular activities (cells; 1 µM): 104.18 relative percentage
- MTT 24h, cellular activities (cells; 5 µM): 102.41 relative percentage
- MTT 48h, cellular activities (cells; 5 µM): 99.74 relative percentage
- MTT 24h, cellular activities (cells; 10 µM): 93.07 relative percentage
- MTT 48h, cellular activities (cells; 10 µM): 94.76 relative percentage
- MTT 24h, cellular activities (cells; 25 µM): 98.65 relative percentage
- MTT 48h, cellular activities (cells; 25 µM): 96.92 relative percentage
- MTT 24h, cellular activities (cells; 50 µM): 95.49 relative percentage
- MTT 48h, cellular activities (cells; 50 µM): 96.42 relative percentage
- MTT 24h, cellular activities (cells; 100 µM): 96.15 relative percentage
- MTT 48h, cellular activities (cells; 100 µM): 94.02 relative percentage
- MTT 24h, cellular activities (cells; 200 µM): 106.8 relative percentage
- MTT 48h, cellular activities (cells; 200 µM): 98.6 relative percentage
- MTT 24h, cellular activities (cells; 400 µM): 108.62 relative percentage
- MTT 48h, cellular activities (cells; 400 µM): 98.9 relative percentage
- cellular activities in MTT tests (result in words) (cells; Figures 1 and 2, 24 and 48 hours): no substantial effects
- concentrations of the viral P24 antigen, NL43(+) ([1]; 0.1 µM): 1000 unit
- concentrations of the viral P24 antigen, NL43(-) ([1]; 0.1 µM): 1000 unit
- concentrations of the viral P24 antigen, NL43(+) ([1]; 0.5 µM): 1000 unit
- concentrations of the viral P24 antigen, NL43(-) ([1]; 0.5 µM): 1000 unit
- concentrations of the viral P24 antigen, NL43(+) ([1]; 1 µM): 1000 unit
- concentrations of the viral P24 antigen, NL43(-) ([1]; 1 µM): 1000 unit
- concentrations of the viral P24 antigen, NL43(+) ([1]; 5 µM): 1000 unit
- concentrations of the viral P24 antigen, NL43(-) ([1]; 5 µM): 1000 unit
- concentrations of the viral P24 antigen, NL43(+) ([1]; 10 µM): 990.64 unit
- concentrations of the viral P24 antigen, NL43(-) ([1]; 10 µM): 1000 unit
- concentrations of the viral P24 antigen, NL43(+) ([1]; 25 µM): 975.64 unit
- concentrations of the viral P24 antigen, NL43(-) ([1]; 25 µM): 988.28 unit
- concentrations of the viral P24 antigen, NL43(+) ([1]; 50 µM): 166.12 unit
- concentrations of the viral P24 antigen, NL43(-) ([1]; 50 µM): 865.44 unit
- concentrations of the viral P24 antigen, NL43(+) ([1]; 100 µM): 0 unit
- concentrations of the viral P24 antigen, NL43(-) ([1]; 100 µM): 62.26 unit
- concentrations of the viral P24 antigen, NL43(+) ([1]; 200 µM): 0 unit
- concentrations of the viral P24 antigen, NL43(-) ([1]; 200 µM): 0 unit
- concentrations of the viral P24 antigen, NL43(+) ([1]; 400 µM): 0 unit
- concentrations of the viral P24 antigen, NL43(-) ([1]; 400 µM): 0 unit
- concentrations of the viral P24 antigen, JRCSF(+) (T cells-tropic (JRCSF); 0.1 µM): 1000 unit
- concentrations of the viral P24 antigen, JRCSF(-) (T cells-tropic (JRCSF); 0.1 µM): 1000 unit
- concentrations of the viral P24 antigen, JRCSF(+) (T cells-tropic (JRCSF); 0.5 µM): 1000 unit
- concentrations of the viral P24 antigen, JRCSF(-) (T cells-tropic (JRCSF); 0.5 µM): 1000 unit
- concentrations of the viral P24 antigen, JRCSF(+) (T cells-tropic (JRCSF); 1 µM): 1000 unit
- concentrations of the viral P24 antigen, JRCSF(-) (T cells-tropic (JRCSF); 1 µM): 1000 unit
- concentrations of the viral P24 antigen, JRCSF(+) (T cells-tropic (JRCSF); 5 µM): 965.62 unit
- concentrations of the viral P24 antigen, JRCSF(-) (T cells-tropic (JRCSF); 5 µM): 1000 unit
- concentrations of the viral P24 antigen, JRCSF(+) (T cells-tropic (JRCSF); 10 µM): 642.72 unit
- concentrations of the viral P24 antigen, JRCSF(-) (T cells-tropic (JRCSF); 10 µM): 34.42 unit
- concentrations of the viral P24 antigen, JRCSF(+) (T cells-tropic (JRCSF); 25 µM): 0 unit
- concentrations of the viral P24 antigen, JRCSF(-) (T cells-tropic (JRCSF); 25 µM): 0 unit
- concentrations of the viral P24 antigen, JRCSF(+) (T cells-tropic (JRCSF); 50 µM): 0 unit
- concentrations of the viral P24 antigen, JRCSF(-) (T cells-tropic (JRCSF); 50 µM): 0 unit
- concentrations of the viral P24 antigen, JRCSF(+) (T cells-tropic (JRCSF); 100 µM): 0 unit
- concentrations of the viral P24 antigen, JRCSF(-) (T cells-tropic (JRCSF); 100 µM): 0 unit
- concentrations of the viral P24 antigen, JRCSF(+) (T cells-tropic (JRCSF); 200 µM): 0 unit
- concentrations of the viral P24 antigen, JRCSF(-) (T cells-tropic (JRCSF); 200 µM): 0 unit
- concentrations of the viral P24 antigen, JRCSF(+) (T cells-tropic (JRCSF); 400 µM): 0 unit
- concentrations of the viral P24 antigen, JRCSF(-) (T cells-tropic (JRCSF); 400 µM): 0 unit
- concentrations of the viral P24 antigen, 89.6(+) ([2]; 0.1 µM): 1000 unit
- concentrations of the viral P24 antigen, 89.6(-) ([2]; 0.1 µM): 1000 unit
- concentrations of the viral P24 antigen, 89.6(+) ([2]; 0.5 µM): 899.22 unit
- concentrations of the viral P24 antigen, 89.6(-) ([2]; 0.5 µM): 949.75 unit
- concentrations of the viral P24 antigen, 89.6(+) ([2]; 1 µM): 643.71 unit
- concentrations of the viral P24 antigen, 89.6(-) ([2]; 1 µM): 1000 unit
- concentrations of the viral P24 antigen, 89.6(+) ([2]; 5 µM): 243.87 unit
- concentrations of the viral P24 antigen, 89.6(-) ([2]; 5 µM): 280.51 unit
- concentrations of the viral P24 antigen, 89.6(+) ([2]; 10 µM): 230.32 unit
- concentrations of the viral P24 antigen, 89.6(-) ([2]; 10 µM): 255.21 unit
- concentrations of the viral P24 antigen, 89.6(+) ([2]; 25 µM): 0 unit
- concentrations of the viral P24 antigen, 89.6(-) ([2]; 25 µM): 182.44 unit
- concentrations of the viral P24 antigen, 89.6(+) ([2]; 50 µM): 0 unit
- concentrations of the viral P24 antigen, 89.6(-) ([2]; 50 µM): 243.53 unit
- concentrations of the viral P24 antigen, 89.6(+) ([2]; 100 µM): 0 unit
- concentrations of the viral P24 antigen, 89.6(-) ([2]; 100 µM): 113.2 unit
- concentrations of the viral P24 antigen, 89.6(+) ([2]; 200 µM): 0 unit
- concentrations of the viral P24 antigen, 89.6(-) ([2]; 200 µM): 0 unit
- concentrations of the viral P24 antigen, 89.6(+) ([2]; 400 µM): 0 unit
- concentrations of the viral P24 antigen, 89.6(-) ([2]; 400 µM): 0 unit
- viral replications (result in words) ([3]; Figures 3-5, PBMC infected with NL-43, JRCSF or 89.6): significantly inhibited viral replications
- inhibit viral replication ([3]; at the concentration of 100 µM or less, various HIV isolates): 100%
- The numbers of dead cells in 400 cells' count ([4]; 0.1 µM): 11
- % viability ([4]; 0.1 µM): 389/391 (99.5%)
- The numbers of dead cells in 400 cells' count ([4]; 0.5 µM): 9
- % viability ([4]; 0.5 µM): 391/391 (100%)
- The numbers of dead cells in 400 cells' count ([4]; 1 µM): 7
- % viability ([4]; 1 µM): 393/391 (100.5%)
- The numbers of dead cells in 400 cells' count ([4]; 5 µM): 10
- % viability ([4]; 5 µM): 390/391 (99.7%)
- The numbers of dead cells in 400 cells' count ([4]; 10 µM): 10
- % viability ([4]; 10 µM): 390/391 (99.7%)
- The numbers of dead cells in 400 cells' count ([4]; 25 µM): 5
- % viability ([4]; 25 µM): 395/391 (101%)
- The numbers of dead cells in 400 cells' count ([4]; 50 µM): 12
- % viability ([4]; 50 µM): 388/391 (99.2%)
- The numbers of dead cells in 400 cells' count ([4]; 100 µM): 11
- % viability ([4]; 100 µM): 389/391 (99.5%)
- The numbers of dead cells in 400 cells' count ([4]; 200 µM): 7
- % viability ([4]; 200 µM): 393/391 (100.5%)
- The numbers of dead cells in 400 cells' count ([4]; 400 µM): 8
- % viability ([4]; 400 µM): 392/391 (100.3%)
- viabilities of PBMC under high-dose versus low-dose treatments (result in words) ([4]; high dose up to 400 µM compared with 0.1-10 µM): no substantial differences
